Counter-ions that a name gives are not always drawn.

The target in data set [1] is T1, Androgen AR receptor (Homo sapiens, UniProt P10275).
T1 construct: expressed in transfected cells; host or cells: NIH3T3 cells
T1 sequence (P10275 1-920): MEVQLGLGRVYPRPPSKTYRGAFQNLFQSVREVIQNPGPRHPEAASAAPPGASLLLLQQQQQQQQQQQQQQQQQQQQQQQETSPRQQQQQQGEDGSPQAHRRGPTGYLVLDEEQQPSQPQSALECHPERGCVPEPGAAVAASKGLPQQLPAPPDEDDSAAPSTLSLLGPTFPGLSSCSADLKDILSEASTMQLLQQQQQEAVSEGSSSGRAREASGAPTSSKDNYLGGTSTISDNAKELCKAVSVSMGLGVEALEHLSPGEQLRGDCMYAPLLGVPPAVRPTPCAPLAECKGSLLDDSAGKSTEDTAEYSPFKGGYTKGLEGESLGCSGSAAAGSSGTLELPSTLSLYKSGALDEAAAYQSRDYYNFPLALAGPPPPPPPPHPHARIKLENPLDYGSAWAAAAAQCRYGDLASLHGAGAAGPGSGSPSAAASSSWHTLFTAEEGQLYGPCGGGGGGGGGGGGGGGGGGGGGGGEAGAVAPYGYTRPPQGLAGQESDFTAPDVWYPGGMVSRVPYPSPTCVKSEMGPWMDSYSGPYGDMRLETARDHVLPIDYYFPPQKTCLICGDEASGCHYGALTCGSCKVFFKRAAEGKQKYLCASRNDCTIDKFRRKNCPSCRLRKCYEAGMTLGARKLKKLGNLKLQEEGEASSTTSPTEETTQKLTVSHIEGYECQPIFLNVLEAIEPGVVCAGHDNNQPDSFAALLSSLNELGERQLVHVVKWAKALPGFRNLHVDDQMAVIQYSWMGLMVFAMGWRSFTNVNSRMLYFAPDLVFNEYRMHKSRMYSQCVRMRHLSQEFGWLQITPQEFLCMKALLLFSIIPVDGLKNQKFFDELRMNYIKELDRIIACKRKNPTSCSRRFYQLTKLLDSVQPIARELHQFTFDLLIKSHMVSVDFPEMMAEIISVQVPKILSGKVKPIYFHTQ
As to the kind of experiment: Receptor Selection and Amplification (R-SAT) assay, androgen receptor agonist activity. Particulars: for Emax: NIH3T3, read-out: % Efficacy. Format: cell-based. The method, then:
Receptor Selection and Amplification (R-SAT) Assays. The functional receptor assay, Receptor Selection and Amplification Technology (R-SAT™), was used with minor modifications from the procedure described previously (Brann, M. R. U.S. Pat. No. 5,707,798, 1998) to screen compounds for efficacy at the Androgen AR receptor. Briefly, NIH3T3 cells were grown in roller bottles to 70-80% confluence. Cells were then transfected for 12-16 h with plasmid DNAs using Polyfect (Qiagen Inc.) as per the manufacturer's protocol. R-SAT assays were typically performed by transfecting 30 ug/bottle of receptor and 50 ug/bottle of β-galactosidase plasmid DNA. All receptor and helper constructs used were in mammalian expression vectors. Helpers are defined as signaling molecules that modulate both ligand-dependent and/or ligand-independent function of the AR receptor, typically co-activators. NIH3T3 cells were transfected for 12-16 h, then trypsinized and frozen in DMSO. Frozen cells were later thawed, plated at 10,000-40,000 cells per well of a 96 well plate containing drug. Cells were then grown in a humidified atmosphere with 5% ambient CO2 for five days. Media was then removed from the plates and marker gene activity was measured by the addition of the β-galactosidase substrate o-nitrophenyl β-D-galactopyranoside (ONPG, in PBS with 5% NP-40). The resulting colorimetric reaction was measured in a spectrophotometric plate reader (Titertek Inc.) at […]. All data were analyzed using the computer program XLFit (IDBSm).

Data set [2] relates to castrated male Sprague Dawley rats. As to the kind of experiment: Wet tissue weights (prostate, seminal vesicle, levator ani muscle) after daily s.c. administration for two weeks. It counts as in vivo, rat. Particulars: for wet weight of prostate / wet weight of seminal vesicle: castrated rats. The procedure: (§1) Androgen Receptor agonist 116BG33 was administered s.c. daily for two weeks to castrated male Sprague Dawley rats (n=3). The effects of 116BG33 (3, 10, 30 mg/kg) were compared to testosterone propionate (0.1 and 1 mg/kg; positive control) and vehicle (10% Tween80; negative control). Blood and wet weights of prostate gland and seminal vesicle were measured after sacrifice that occurred 24 hours after the last dose. Blood was collected in heparin collection tubes after sacrifice that occurred 24 hours after the last dose. Blood was centrifuged and plasma collected and plasma samples frozen.

Data set [3] has the same test system. As to the kind of experiment: Rat luteinizing hormone (LH) plasma levels by ELISA after daily s.c. administration for 14 days. Format: in vivo. Particulars: for dose at which complete reversal of plasma LH levels is evident: s.c. daily for 14 days. The procedure:
as §1
Rat luteinizing hormone (LH) plasma levels were determined using an enzyme linked immunoabsorbent assay (ELISA) from Amersham as per manufacturer's instructions. The solid phase assay is based on the competition between unlabeled rLH and a fixed quantity of biotin labelled rLH for a limited amount of rLH specific antibody. A conjugate streptavidin/peroxidase allows for signal amplification and detection in presence of the substrate.

The mark [4] stands for this setting: 3, 10 or 30 mg/kg s.c. daily for two weeks, compared to vehicle.
The mark [5] stands for this setting: 0.1 mg/kg s.c. daily for two weeks, compared to vehicle.
The mark [6] stands for this setting: 1 mg/kg s.c. daily for two weeks, compared to vehicle.

A word on the EC50: it is the midpoint of the concentration-response curve. Lower therefore signals higher potency in that assay. As for `CC1CCC(C)N1c1ccc([N+](=O)[O-])c2ccccc12` (stereo not drawn), in data set [1], the EC50 is 7.94 nM and the Emax worked out at 94%.

On to `N#Cc1ccc(N2[C@@H]3CC[C@H]2CC(NCCc2c[nH]cn2)C3)c2ccccc12` (mixture of isomers) [156AF11-229, 4-{3-[2-(1H-Imidazol-4-yl)ethylamino]-8-azabicyclo[3.2.1]oct-8-yl}naphthalene-1-carbonitrile, dihydrochloride], for which, in data set [1], the EC50 is 158 nM and the Emax worked out at 44%.

With `O=[N+]([O-])c1ccc(N2CCCC2)c2ccccc12` [116BG33, 1-(4-Nitronaphthalen-1-yl)pyrrolidine], in data set [2] (setting [4]), the “wet weight of prostate” value is listed as “did not have any effect” and the “wet weight of seminal vesicle” value was “did not have any effect”. Also, the “dose at which complete reversal of plasma LH levels is evident” value in data set [3] was found to be 30 mg/kg. For the same compound, the “plasma LH levels” value in data set [3] (sub-cutaneous, 3, 10, 30 mg/kg, 14 days) is listed as “reduces LH levels to physiological norms”.

As for `N#Cc1ccc(N2CCCCC2)c2ccccc12` [136BG73-10, 4-Piperidin-1-ylnaphthalene-1-carbonitrile], in data set [1], it took 7.94 nM to reach a half-maximal effect (EC50) and the Emax came to 66%.

Turning to `N#Cc1ccc(N2CCC(O)C2)c2ccccc12` (stereo not drawn) [136BG85-2, 4-(3-Hydroxypyrrolidin-1-yl)naphthalene-1-carbonitrile], in data set [1], the EC50 is 79.4 nM and the Emax is 41%.

In the case of `N#Cc1ccc(N2[C@@H]3CC[C@H]2CC(O)C3)c2ccccc12` (stereo partly drawn) [154BG31, 4-(3-endo-Hydroxy-8-azabicyclo[3.2.1]oct-8-yl)naphthalene-1-carbonitrile], the “wet tissue weights (prostate, seminal vesicle, levator ani muscle)” value is recorded as “did not appear to significantly alter” in data set [2] (3 mg/kg s.c. daily for two weeks); “appeared to significantly increase” in data set [2] (higher doses (3 and 10 mg/kg) daily, not to the extent of TP). For the same compound, in data set [2] (compared to TP), the “dose relative to TP at which negative side effects (increased seminal vesicle and prostate size) become evident” value is on record as “at least 100 × of TP”. Further, in data set [3], the “dose at which complete reversal of plasma LH levels is evident” value came to 10 mg/kg. The “plasma LH levels” value in data set [3] (various doses, s.c. for 14 days) is recorded as “dose-dependent suppression”.

Take `N#Cc1ccc(N2C3CCC2CC(OC(=O)CCN2CCOCC2)C3)c2ccccc12` (stereo not drawn) [156AF32-246, 3-Morpholin-4-ylpropionic acid endo-8-(4-cyanonaphthalen-1-yl)-8-azabicyclo[3.2.1]oct-3-yl ester, hydrochloride]: in data set [1], the concentration giving a half-maximal response (EC50) is 39.8 nM and the Emax was determined as 57%.

`CC1(O)CC2CCC(C1)N2c1ccc(C#N)c2ccccc12` (stereo not drawn) [156AF70-267, 4-(3-Endo-hydroxy-3-exo-methyl-8-azabicyclo[3.2.1]oct-8-yl)naphthalene-1-carbonitrile]: in data set [1], the midpoint of the response, the EC50, lay at 2 nM and the Emax was found to be 88%.

Consider `CC1C=CC(C)N1c1ccc(C#N)c2ccccc12` (stereo not drawn) [196MBT2-7, 4-(2,5-Dimethyl-2,5-dihydropyrrol-1-yl)naphthalene-1-carbonitrile], for which, in data set [1], the EC50 was 7.94 nM and the Emax is 85%.

On to `CCC(=O)O[C@H]1CC[C@H]2[C@@H]3CCC4=CC(=O)CC[C@]4(C)[C@H]3CC[C@]12C` [testosterone propionate], for which, in data set [2] (setting [5]), the “wet weight of prostate” value is “did not have any effect” and the “wet weight of seminal vesicle” value was “did not have any effect”. Moreover, in data set [2] (setting [6]), the “wet weight of prostate” value is on record as “significant increases”, the “wet weight of seminal vesicle” value is given as “significant increases” and the “wet weight of levator ani muscle” value is listed as “significant increases”. The “plasma LH levels” value in data set [3] (1 mg/kg, s.c. for 14 days, versus naive rats) is “restored LH levels to those obtained in naive rats”. Further, the “plasma LH levels” value in data set [3] (chronic administration (14 days), 0.1 and 1 mg/kg, versus naive animals) is reported as “dose dependent reversal”.

Source of the values: US7268232B2 (Acadia Pharmaceuticals Inc., priority 2004, dated 2007).
